# Target: T1, FLT3 D835Y (Homo sapiens, UniProt P36888, D835Y)
# T1 sequence (P36888 27-993 D835Y): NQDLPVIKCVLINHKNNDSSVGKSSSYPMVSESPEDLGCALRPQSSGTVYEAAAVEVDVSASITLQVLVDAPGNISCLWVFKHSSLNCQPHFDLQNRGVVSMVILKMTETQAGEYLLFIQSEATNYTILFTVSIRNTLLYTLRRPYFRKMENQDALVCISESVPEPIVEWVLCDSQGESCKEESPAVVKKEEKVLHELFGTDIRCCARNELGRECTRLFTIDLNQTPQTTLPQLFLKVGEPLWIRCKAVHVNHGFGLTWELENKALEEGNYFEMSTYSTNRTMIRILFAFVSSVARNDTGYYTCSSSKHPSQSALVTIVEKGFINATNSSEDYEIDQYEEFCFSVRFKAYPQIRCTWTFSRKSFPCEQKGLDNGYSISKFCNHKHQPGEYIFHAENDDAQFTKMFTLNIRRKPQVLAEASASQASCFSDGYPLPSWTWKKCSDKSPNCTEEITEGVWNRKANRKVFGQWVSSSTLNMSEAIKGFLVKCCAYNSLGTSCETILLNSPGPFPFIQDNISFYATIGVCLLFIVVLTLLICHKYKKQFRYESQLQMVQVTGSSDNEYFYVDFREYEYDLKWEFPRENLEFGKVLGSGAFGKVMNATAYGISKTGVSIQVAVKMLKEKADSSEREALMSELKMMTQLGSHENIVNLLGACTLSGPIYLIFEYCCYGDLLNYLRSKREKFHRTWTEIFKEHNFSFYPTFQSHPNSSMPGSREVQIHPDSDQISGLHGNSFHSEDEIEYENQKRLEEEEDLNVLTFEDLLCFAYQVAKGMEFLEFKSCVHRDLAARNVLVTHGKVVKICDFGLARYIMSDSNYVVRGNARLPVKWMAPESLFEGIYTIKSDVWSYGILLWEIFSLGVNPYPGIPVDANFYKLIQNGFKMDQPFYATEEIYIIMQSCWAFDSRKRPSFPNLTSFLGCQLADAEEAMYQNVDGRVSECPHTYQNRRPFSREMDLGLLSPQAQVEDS
# Test: DiscoverX KINOMEscan active site-directed competition binding, FLT3 D835Y
# Conditions: Table 12; no ATP
# Description: (§1) Kinase binding data were obtained for various exemplary compounds prepared according to Examples 1-8 using the DiscoverX KINOMEscan® active site-directed competition binding site-directed assay protocol described below. […] As a result, the data report thermodynamic interaction affinities (Kd values), rather than IC50 values that are dependent on ATP concentrations. The assay uses a DNA-tagged version of the protein kinase, and an immobilized ligand bound to a solid support. Compounds that directly or indirectly prevent kinase binding to the immobilized ligand reduce the amount of kinase captured on the solid support, which is detected using an ultra-sensitive qPCR method. Affinity constants reported from the assay have been reported to be independent of the immobilized ligand used that is coupled to the solid support (See supplemental information in Fabian, M. A. et. al., (2005) Nat. Biotechnol. 23, 329-336; Wodicka, L. M. et. al., (2010) Chem. Biol. 17, 1241-1249.)
# Kinase-tagged T7 phage strains were prepared in an E. coli host derived from the BL21 strain. E. coli were grown to log-phase and infected with T7 phage and incubated with shaking at 32 °C until lysis. The lysates were centrifuged and filtered to remove cell debris. The remaining kinases were produced in HEK-293 cells and subsequently tagged with DNA for qPCR detection. Streptavidin-coated magnetic beads were treated with biotinylated small molecule ligands for 30 minutes at room temperature to generate affinity resins for kinase assays. The liganded beads were blocked with excess biotin and washed with blocking buffer (SeaBlock (Pierce), 1% BSA, 0.05% Tween 20, 1 mM DTT) to remove unbound ligand and to reduce non-specific binding. […] Test compounds were prepared as 111x stocks in 100% DMSO. Kds were determined using an 11-point 3-fold compound dilution series with three DMSO control points. All compounds for Kd measurements are distributed by acoustic transfer (non-contact dispensing) in 100% DMSO. The compounds were then diluted directly into the assays such that the final concentration of DMSO was 0.9%. All reactions were performed in polypropylene 384-well plates. Each was a final volume of 0.02 mL. The assay plates were incubated at room temperature with shaking for 1 hour and the affinity beads were washed with wash buffer (1×PBS, 0.05% Tween 20). The beads were then re-suspended in elution buffer (1×PBS, 0.05% Tween 20, 0.5 μM nonbiotinylated affinity ligand) and incubated at room temperature with shaking for 30 minutes. The kinase concentration in the eluates was measured by qPCR. Binding constants (Kds) were calculated with a standard dose-response curve using the Hill equation. The Hill Slope was set to −1. Curves were fitted using a non-linear least square fit with the Levenberg-Marquardt algorithm.
# as §1, with “9-12” for “1-8”
# Kinase-tagged T7 phage strains were prepared in an E. coli host derived from the BL21 strain. […]
row,Kd,SMILES
1,< 0.17 nM,"COc1cn2ncc(-c3nc(N[C@H]4CNCC[C@@H]4F)c(F)cc3F)c2nc1C(C)(C)O [Compound 13, 2-(3-(3,5-difluoro-6-(((3S,4S)-4-fluoropiperidin-3-yl)amino)pyridin-2-yl)-6-methoxypyrazolo[1,5-a]pyrimidin-5-yl)propan-2-ol]"
2,0.21 nM,"COc1cn2ncc(-c3nc(N[C@H]4CNCC[C@@H]4F)c(C#N)cc3F)c2nc1C(C)(C)O [Compound 10, 5-fluoro-2-(((3S,4S)-4-fluoropiperidin-3-yl)amino)-6-(5-(2-hydroxypropan-2-yl)-6-methoxypyrazolo[1,5-a]pyrimidin-3-yl)nicotinonitrile]"
3,0.42 nM,"COc1cn2ncc(-c3nc(N[C@H]4CNCC[C@@H]4F)c(C#N)cc3F)c2nc1C1CC1 [Compound 7, 6-(5-cyclopropyl-6-methoxypyrazolo[1,5-a]pyrimidin-3-yl)-5-fluoro-2-(((3S,4S)-4-fluoropiperidin-3-yl)amino)nicotinonitrile]"

# Same assay, conditions: Table 18; no ATP
row,SMILES,Kd
1,"COc1cn2ncc(-c3nc(N[C@@H]4CCCNC4)ncc3F)c2nc1C1CC1 [Compound 14a, (R)-4-(5-cyclopropyl-6-methoxypyrazolo[1,5-a]pyrimidin-3-yl)-5-fluoro-N-(piperidin-3-yl)pyrimidin-2-amine]",< 0.17 nM
2,"COc1cn2ncc(-c3cncc(N[C@H]4CNCC[C@@H]4F)n3)c2nc1C1CC1 [Compound 12a, 6-(5-cyclopropyl-6-methoxypyrazolo[1,5-a]pyrimidin-3-yl)-N-((3S,4S)-4-fluoropiperidin-3-yl)pyrazin-2-amine]",0.62 nM
3,"COc1cn2ncc(-c3ccnc(N[C@H]4CNCC[C@@H]4F)n3)c2nc1C1CC1 [Compound 7a, 4-(5-cyclopropyl-6-methoxypyrazolo[1,5-a]pyrimidin-3-yl)-N-((3S,4S)-4-fluoropiperidin-3-yl)pyrimidin-2-amine]",0.79 nM

# Other lines, results leading:
row,Kd,SMILES
1,0.34 nM,"COc1cn2ncc(-c3nc(N[C@H]4CNCC[C@@H]4F)ncc3F)c2nc1C1CC1 [Compound 15a, 4-(5-cyclopropyl-6-methoxypyrazolo[1,5-a]pyrimidin-3-yl)-5-fluoro-N-((3S,4S)-4-fluoropiperidin-3-yl)pyrimidin-2-amine]"
2,< 0.17 nM,"COc1cn2ncc(-c3nc(N[C@H]4CNCC[C@@H]4F)ncc3F)c2nc1C(C)(C)O [Compound 6a, 2-(3-(5-fluoro-2-(((3S,4S)-4-fluoropiperidin-3-yl)amino)pyrimidin-4-yl)-6-methoxypyrazolo[1,5-a]pyrimidin-5-yl)propan-2-ol]"
